The source made the active and inactive calls. The rule behind the calls is not given here.
What was measured:
[1] = molecular target: Proto-oncogene tyrosine-protein kinase Src (Homo sapiens) (UniProt P12931); assay: Inhibition of SRC using biotinylated HNRNPK as substrate at 0.2 to 6 uM by blotting method
[2] = molecular target: T1, Receptor tyrosine-protein kinase erbB-2 (Homo sapiens, UniProt P04626); assay: Inhibition of truncated soluble ERBB2 expressed in human MCF7 cell lysate at 1 to 10 uM after mCherry fluorescence assay pretreated with canertinib before lysis; type: cell-based
T1 sequence (P04626 whole entry, the tested form may be a part): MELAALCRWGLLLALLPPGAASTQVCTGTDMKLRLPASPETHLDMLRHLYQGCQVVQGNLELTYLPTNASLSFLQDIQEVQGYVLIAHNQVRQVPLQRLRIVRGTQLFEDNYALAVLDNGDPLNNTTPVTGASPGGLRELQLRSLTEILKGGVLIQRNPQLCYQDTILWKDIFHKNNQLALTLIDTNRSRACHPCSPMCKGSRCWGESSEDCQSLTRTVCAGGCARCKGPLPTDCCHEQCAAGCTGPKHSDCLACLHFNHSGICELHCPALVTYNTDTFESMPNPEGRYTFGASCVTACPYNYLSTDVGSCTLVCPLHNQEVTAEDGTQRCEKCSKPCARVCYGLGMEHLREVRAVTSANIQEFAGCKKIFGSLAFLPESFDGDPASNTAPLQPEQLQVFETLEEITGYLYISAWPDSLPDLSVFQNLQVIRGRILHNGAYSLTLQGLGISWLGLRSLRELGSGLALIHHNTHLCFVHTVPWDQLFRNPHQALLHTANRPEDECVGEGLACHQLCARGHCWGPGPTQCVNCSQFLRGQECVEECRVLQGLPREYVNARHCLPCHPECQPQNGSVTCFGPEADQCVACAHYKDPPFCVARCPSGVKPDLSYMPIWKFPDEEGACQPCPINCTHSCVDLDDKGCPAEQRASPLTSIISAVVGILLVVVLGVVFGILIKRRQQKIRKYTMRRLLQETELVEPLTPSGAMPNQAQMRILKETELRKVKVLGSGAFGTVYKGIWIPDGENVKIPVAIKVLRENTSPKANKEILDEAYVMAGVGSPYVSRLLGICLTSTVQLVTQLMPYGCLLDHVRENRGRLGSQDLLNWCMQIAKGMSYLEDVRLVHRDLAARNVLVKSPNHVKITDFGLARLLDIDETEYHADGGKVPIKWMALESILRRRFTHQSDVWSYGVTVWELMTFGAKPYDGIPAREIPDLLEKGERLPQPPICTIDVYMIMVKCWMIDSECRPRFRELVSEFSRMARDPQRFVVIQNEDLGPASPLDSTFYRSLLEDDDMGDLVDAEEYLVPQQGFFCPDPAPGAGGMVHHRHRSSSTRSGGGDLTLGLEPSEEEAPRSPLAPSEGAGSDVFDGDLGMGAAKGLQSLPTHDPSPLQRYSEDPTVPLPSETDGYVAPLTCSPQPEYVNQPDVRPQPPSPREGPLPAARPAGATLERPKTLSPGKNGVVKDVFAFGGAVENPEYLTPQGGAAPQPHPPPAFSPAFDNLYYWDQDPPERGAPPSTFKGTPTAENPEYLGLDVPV

[3] = molecular target: T1, Receptor tyrosine-protein kinase erbB-2; assay: Binding affinity to full-length/His-tagged ERBB2 UV-vis emission spectroscopy
[4] = molecular target: T1, Receptor tyrosine-protein kinase erbB-2; assay: Inhibition of ERBB2 autophosphorylation Tyr 1139 residue in human BT474 cells at 2 to 14 uM after 12 hrs by Western blotting
[5] = molecular target: T1, Receptor tyrosine-protein kinase erbB-2; assay: Inhibition of truncated soluble ERBB2 expressed in human MCF7 cell lysate at 1 to 10 uM after mCherry fluorescence assay; type: cell-free
[6] = molecular target: Proto-oncogene tyrosine-protein kinase Src (Homo sapiens) (UniProt P12931); assay: Inhibition of SRC using biotinylated HNRNPK as substrate up to 6 uM by blotting method
[7] = molecular target: T1, Receptor tyrosine-protein kinase erbB-2; assay: Inhibition of full-length/His-tagged ERBB2 overexpressed in human MCF7 cells assessed as inhibition of AKT phosphorylation at 0.2 to 6 uM after 12 hrs by Western blot analysis; type: cell-based

Proto-oncogene tyrosine-protein kinase Src (Homo sapiens), sequence (P12931 2-536 limits assumed): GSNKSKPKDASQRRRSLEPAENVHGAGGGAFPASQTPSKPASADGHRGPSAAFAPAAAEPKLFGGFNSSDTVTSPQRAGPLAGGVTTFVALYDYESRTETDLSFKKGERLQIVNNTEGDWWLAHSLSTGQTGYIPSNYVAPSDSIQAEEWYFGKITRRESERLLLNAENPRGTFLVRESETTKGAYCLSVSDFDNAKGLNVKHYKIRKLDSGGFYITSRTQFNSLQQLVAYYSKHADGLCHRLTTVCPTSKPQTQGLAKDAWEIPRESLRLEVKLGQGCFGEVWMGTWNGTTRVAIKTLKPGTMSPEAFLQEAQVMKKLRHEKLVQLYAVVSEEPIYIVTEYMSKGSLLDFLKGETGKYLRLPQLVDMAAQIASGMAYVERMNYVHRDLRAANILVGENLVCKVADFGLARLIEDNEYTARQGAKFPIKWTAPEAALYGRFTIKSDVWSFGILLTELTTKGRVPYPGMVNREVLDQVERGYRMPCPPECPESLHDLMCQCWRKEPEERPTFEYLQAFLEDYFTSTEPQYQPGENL

## Cc1ccc(-c2nn(C(C)(C)C)c3ncnc(N)c23)cc1
[1]
  inhibition: Active

## CN(C)c1ccc(/C=C/c2ccc3ncnc(NCc4ccccc4)c3c2)cc1
[2]
  inhibition: inactive
[3]
  Kd: 2900 nM
[4]
  Ki: 3100 nM
[5]
  inhibition: Active
[6]
  inhibition: inactive
[7]
  inhibition: inactive

Source: ChEMBL document CHEMBL2069257, “A fluorescent reporter of ATP binding-competent receptor kinases” (Bioorg Med Chem Lett, 2012)
